Article PMC7411652 (Sensors (Basel, Switzerland), 2020)
Like-named read-outs stand apart in the source and are kept apart here.

How the values were obtained:
CYP1A1 enzyme = molecular target: T1, CYP1A1 enzyme (Homo sapiens, UniProt P04798); test: Live-cell IC50 determination, CYP1A1 expressed in yeast cells, 7-ethoxyresorufin (7-ER) substrate; format: cell-based; conditions: 1 × 10^7 cells, 10 min incubation
T1 construct: expressed in transfected cells; host or cells: Saccharomyces cerevisiae W303-1A derived strains yRD+ (+CPR) and yRD-::Bax (-CPR)
T1 sequence (P04798 1-512): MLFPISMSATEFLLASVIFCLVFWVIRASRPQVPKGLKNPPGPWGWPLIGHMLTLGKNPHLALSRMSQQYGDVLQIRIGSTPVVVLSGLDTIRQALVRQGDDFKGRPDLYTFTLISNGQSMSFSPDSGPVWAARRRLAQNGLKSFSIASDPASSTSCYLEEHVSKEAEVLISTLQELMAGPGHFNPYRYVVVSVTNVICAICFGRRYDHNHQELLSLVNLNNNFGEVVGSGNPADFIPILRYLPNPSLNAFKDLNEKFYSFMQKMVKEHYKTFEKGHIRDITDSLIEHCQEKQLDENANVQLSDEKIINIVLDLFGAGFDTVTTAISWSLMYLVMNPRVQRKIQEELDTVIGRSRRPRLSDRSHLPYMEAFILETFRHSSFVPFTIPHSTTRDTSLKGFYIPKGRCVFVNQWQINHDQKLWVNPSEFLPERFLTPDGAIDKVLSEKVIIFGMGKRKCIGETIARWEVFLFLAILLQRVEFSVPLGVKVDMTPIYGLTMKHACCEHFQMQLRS
Method: The IC50 values were calculated using the GraphPad Prism software.

CYP1A1 Supersomes = conditions: read-out: IC50 for inhibition of CYP1A1 Supersomes; insect cell-derived microsomes, Corning-Gentest; cited from earlier work
CYP1A2 Supersomes = tested on: CYP1A2 Supersomes; set-up: method as in PMID 19359406; conditions: insect cell-derived microsomes, Corning-Gentest, 10 min incubation with microsomal enzyme; read-out: IC50 for inhibition of CYP1A2 Supersomes; cited from earlier work

IC50 (CYP1A1 enzyme; live yeast strain yRD+ (+CPR), read-out: IC50 for inhibition of CYP1A1 in yRD+ cells) [nM]	IC50 (CYP1A1 enzyme; live yeast strain yRD−:: Bax (–CPR), read-out: IC50 for inhibition of CYP1A1 in yRD- cells) [nM]	SMILES	IC50 (CYP1A1 Supersomes) [nM]	IC50 (CYP1A2 Supersomes) [nM]
20.8	21.3	O=c1cc(-c2ccccc2)oc2c1ccc1ccccc12 [ANF, Alpha-naphthoflavone]	18	–
–	–	Cc1nc2c([nH]1)c(=O)n(C)c(=O)n2Cc1ccco1 [Furafylline]	–	6100
